Experimental data published in PubChem BioAssay AID652177 (Vanderbilt Specialized Chemistry Center, 2013).

Target: High affinity choline transporter 1 (Homo sapiens) (UniProt Q9GZV3)
Assay: inhibition of SLC5A7-mediated choline transport – cell-based, HEK-293 hCHT, [3H]-choline uptake, dose response (AID 652177)
Settings: 15 min, IC50 at 10 uM choline

High affinity choline transporter 1 (Homo sapiens), sequence (Q9GZV3 whole entry, looked up): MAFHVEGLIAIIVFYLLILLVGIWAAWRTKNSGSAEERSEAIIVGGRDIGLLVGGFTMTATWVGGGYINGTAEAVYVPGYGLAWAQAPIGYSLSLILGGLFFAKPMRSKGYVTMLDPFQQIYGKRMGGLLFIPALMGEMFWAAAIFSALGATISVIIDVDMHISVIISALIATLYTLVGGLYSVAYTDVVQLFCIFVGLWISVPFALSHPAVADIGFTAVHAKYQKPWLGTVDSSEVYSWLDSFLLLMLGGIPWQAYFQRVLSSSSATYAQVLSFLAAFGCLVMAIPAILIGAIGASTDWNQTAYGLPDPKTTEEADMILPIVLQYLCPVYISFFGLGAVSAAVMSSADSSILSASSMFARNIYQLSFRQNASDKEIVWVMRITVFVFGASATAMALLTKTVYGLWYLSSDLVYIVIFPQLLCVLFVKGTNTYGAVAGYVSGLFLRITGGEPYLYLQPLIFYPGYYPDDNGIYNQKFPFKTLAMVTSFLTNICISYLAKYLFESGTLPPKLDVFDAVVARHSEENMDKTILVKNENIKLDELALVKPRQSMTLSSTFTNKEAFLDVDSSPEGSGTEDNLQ

CCc1cc(CNC(=O)c2ccc(OC)c(OCCN3CCCCC3)c2)on1
IC50: 2210 nM
